Results published in publication PMC12362618, “Development of the First Small-Molecule Inhibitor Targeting Oncostatin M for Treatment of Breast Cancer” (Journal of Medicinal Chemistry, 2025).
Values joined by “and” are separate entries in the source; they are usually repeats but may differ in a detail not shown here. Identical values can stand only once. “Also recorded” adds a separate entry of the source.

Legend:
OSM = target: T1, OSM (Homo sapiens, UniProt P13725); assay: Fluorescence quenching assay of SMI binding to OSM; conditions: average of three independent replicates, errors at 95% confidence level, read-out: KD (OSM-SMI dissociation constant)
T1 sequence (P13725 26-252): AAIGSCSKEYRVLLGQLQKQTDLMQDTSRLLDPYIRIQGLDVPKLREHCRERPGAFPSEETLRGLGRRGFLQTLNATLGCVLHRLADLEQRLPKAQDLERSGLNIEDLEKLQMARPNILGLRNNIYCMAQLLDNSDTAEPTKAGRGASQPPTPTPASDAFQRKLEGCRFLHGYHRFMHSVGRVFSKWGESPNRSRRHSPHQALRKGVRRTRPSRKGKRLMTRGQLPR
Description: To perform fluorescence quenching assays, 2 mL of 1 μM OSM solution in polymethylmethacrylate cuvettes was prepared by dilution of a concentrated stock solution of recombinant OSM with buffer solution (100 mM sodium chloride, 50 mM sodium phosphate, 50 mM freshly added DTT, pH = 6.6). Cuvettes were titrated with 5 μL increments of a 1 mM small molecule stock solution in DMSO, with a cuvette titrated with an equivalent volume of DMSO as a control. […] In cases where little to no significant quenching was observed, the titration was supplemented with 2.5 μL increments of a 10 mM small molecule stock solution to increase the concentration delivered. The fluorescence intensity measurements were obtained on a Cary Eclipse spectrofluorometer equipped with a Xenon arc lamp. Fluorescence intensities were measured by exciting at 280 nm (4 nm slit width) and recording the emission from 345 to 355 nm with a photomultiplier tube voltage of 700 V, unless otherwise noted. Each titration point was normalized to OSM’s native fluorescence intensity, corrected by adding the decrease in fluorescence intensity caused by dilution with DMSO, and the average value of the three replicates for each point was plotted against concentration of small molecule delivered and fit to a modified Stern–Volmer function as described by Charlier and Plapp. Binding affinity (K D) values were obtained […] from the fitting routine. All curve-fitting analysis was performed in GraphPad Prism 8.0.

[1] = tested on: OSM-induced pSTAT3 in T47D human breast cancer cells; assay: pSTAT3 ELISA in T47D cells treated with OSM ± SMI; format: cell-based; conditions: T47D; SMI 10 μM + OSM 10 ng/mL, 30 min; ELISA; relative to +OSM, no-treatment blank subtracted
Description: To test the effect of SMIs in vitro, each SMI was incubated with OSM for a period of 1 h at 37 °C, and T47D and MDA-MB-231 human breast cancer cell lines were subsequently treated with OSM (10 ng/mL) and/or SMI-10 (10 μM) analogs for 30 min and measured for pSTAT3 levels via ELISA. The results of these assays are presented graphically in Figure and, for T47D cells, in Table as a percentage of reduction from +OSM alone. For phospho-STAT3 (pSTAT3) ELISAs, T47D MDA-MB-231, and MCF-7 cells were seeded in 12- or 24-well plates at 70–75% confluency and allowed to adhere overnight, after which cells were serum-starved with serum-free RPMI-1640 for 4 h. SMIs (10 μM in DMSO or serially diluted to specified concentrations from a 100 mM stock in DMSO) and human recombinant OSM (10 ng/mL; PeproTech; #300–10T-10UG) were incubated in serum-free RPMI-1640 medium for 1 h. After incubation, the SMI-10 analogs or SMI-10B13 and OSM were added to the serum-starved cells for 30 min. Immediately afterward, the cells were lysed using 1x PathScan Sandwich ELISA Lysis Buffer (Cell Signaling Technology; #7018S), collected, and stored at −20 °C. Lysates were analyzed for pSTAT3 levels using either the PathScan Phospho-STAT3 (Tyr705) Sandwich ELISA Antibody Pair kit (Cell Signaling Technology; #7146) or Human/Mouse Phospho-STAT3 (Y705) DuoSet IC ELISA (R&D Systems; DYC4607B), according to manufacture’s protocol. pSTAT3 expression was measured with absorbance at 450 nm and quantified by comparison relative to OSM-induced pSTAT3 levels. To calculate an IC50 for SMI-10B13, a standard curve was generated as described in the DuoSet IC ELISA datasheet to determine the concentration of pSTAT3.

[2] = tested on: OSM-mediated signaling (pSTAT3, pAKT, pJNK, pERK) in T47D cells; assay: Immunoblot of OSM-mediated signaling in T47D cells; format: cell-based, human; conditions: SMI 10 μM, OSM 10 ng/mL, 30 min
Description: For immunoblot analysis, T47D breast cancer cells were treated and collected in the same manner as described above for the ELISA preparation. After lysate collection, samples were run on a 10% SDS-PAGE gel and transferred to a nitrocellulose membrane via semidry transfer. Blots were rinsed with DI H2O and allowed to completely dry at room temperature before blocking with LiCor Intercept PBS Blocking Buffer (LiCor, Lincoln, NE; Cat# 927-90001) for 1 h. After blocking, primary antibodies (1:1000) suspended in blocking buffer supplemented with 0.1% Tween were added, shaken at room temperature for 1 h, and stored at 4 °C overnight. Membranes were then washed 6 times for 5 minutes each with 1X PBS supplemented with 0.5% Tween while shaking at room temperature, and secondary antibodies (1:15,000) were applied and incubated for 1 h. Afterward, membranes were washed as previously described above and imaged at 700 nm using the LiCor Odyssey CLx Imaging System. Quantification of immunoblots was performed using the LiCor Image Studio software, normalizing to β-Actin, and calculating relative fold change compared to nontreated samples. Antibodies used included phospho-STAT3 (Y705) (Cell Signaling Technology, Danvers, MA; cat. no. 9145), phospho-AKT (S473) (Cell Signaling Technology, Danvers, MA; cat. no. 4060), phospho-JNK ([…]/[…]) (Cell Signaling Technology, Danvers, MA; cat. no. 4668), phospho-ERK (T202/Y204) (Cell Signaling Technology, Danvers, MA; cat. no. 9101), β-Actin (Cell Signaling Technology; cat. no. 3700), and donkey antirabbit IRDye 800CW (LiCor, Lincoln, NE; Cat# 925-32213).

Row | Kd (OSM) | SMILES | Relative pSTAT3 Levels (Table 1, SMI-10A-10J) [1] [%] | Inhibition of OSM-mediated signaling cascades by immunoblot (words) [2] | Relative pSTAT3 Levels (Table 2, SMI-10B analogs) [1] [%] | Inhibition of OSM-mediated signaling cascades by immunoblot (words) ([2]; listed as 10B8)
1 | 30.5 ± 2.1 µM | O=C(NCc1ccccc1)c1cc(-c2ccc3c(c2)OCO3)c(-c2ccc3c(c2)OCO3)o1 [SMI-10J, 4,5-Bis(benzo[d][1,3]dioxol-5-yl)-N-benzylfuran-2-carboxamide] | 8.6 | significant reductions, near nontreated levels | – | –
2 | 13.5 ± 2.5 µM | O=C(O)CCc1cc(-c2ccc(Cl)c(Cl)c2)c(-c2ccc3c(c2)OCO3)o1 [SMI-10B18, 3-(5-(Benzo[d][1,3]dioxol-5-yl)-4-(3,4-dichlorophenyl)furan-2-yl)propanoic Acid] | – | – | 35.00 | –
3 | 16.5 ± 5.2 µM | O=C(O)CCc1cc(-c2cncnc2)c(-c2ccc3c(c2)OCO3)o1 [SMI-10B16, 3-(5-(Benzo[d][1,3]dioxol-5-yl)-4-(pyrimidin-5-yl)furan-2-yl)propanoic Acid] | – | – | 41.62 | –
4 | 9.2 ± 1.2 µM | O=C(O)/C=C/c1cc(-c2ccc3c(c2)OCO3)c(-c2ccc3c(c2)OCO3)[nH]1 [SMI-10B5, (E)-3-(4,5-Bis(benzo[d][1,3]dioxol-5-yl)-1H-pyrrol-2-yl)acrylic Acid] | – | – | 19.89 | –
5 | 17.5 ± 1.2 µM | COc1ccc(-c2cc(/C=C/C(=O)O)oc2-c2ccc(OC)c(O)c2)cc1O [SMI-10B2, (E)-3-(4,5-Bis(3-hydroxy-4-methoxyphenyl)furan-2-yl)acrylic Acid] | – | – | 56.66 | –
6 | 20.1 ± 1.5 µM | O=C(O)/C=C/c1ccc(-c2ccc3c(c2)OCO3)o1 [SMI-10B11, (E)-3-(5-(Benzo[d][1,3]dioxol-5-yl)furan-2-yl)acrylic Acid] | – | – | 42.43 | –
7 | 6.6 µM and 6.64 µM | O=C(O)/C=C/c1cc(-c2ccc3c(c2)OCCO3)c(-c2ccc3c(c2)OCCO3)o1 [SMI-10B7, (E)-3-(4,5-Bis(2,3-dihydrobenzo[b][1,4]dioxin-6-yl)furan-2-yl)acrylic Acid] | – | – | 73.96 | –
8 | 7.2 ± 0.8 µM | O=C(O)/C=C/c1cc(-c2ccccc2)c(-c2ccc3c(c2)OCO3)o1 [SMI-10B8, (E)-3-(5-(Benzo[d][1,3]dioxol-5-yl)-4-phenylfuran-2-yl)acrylic Acid] | – | most effective | 81.66 | better at inhibiting pSTAT3, pAKT, pJNK, and pERK signaling
9 | 9.1 ± 1.5 µM | O=C(O)CCc1cc(-c2ccc3c(c2)OCO3)c(-c2ccc3c(c2)OCO3)o1 [SMI-10B14, 3-(4,5-Bis(benzo[d][1,3]dioxol-5-yl)furan-2-yl)propanoic Acid] | – | most effective; also recorded: better at inhibiting pSTAT3, pAKT, pJNK, and pERK signaling | 79.65 | –
10 | 46.2 ± 7.2 µM | O=C(O)c1cc(-c2ccc3c(c2)OCO3)c(-c2ccc3c(c2)OCO3)o1 [SMI-10I, 4,5-Bis(benzo[d][1,3]dioxol-5-yl)furan-2-carboxylic Acid] | 45.9 | – | – | –
11 | 66.7 ± 5.8 µM | O=C(O)/C=C/c1cc(-c2ccc3c(c2)OCO3)co1 [SMI-10B12, (E)-3-(4-(Benzo[d][1,3]dioxol-5-yl)furan-2-yl)acrylic Acid] | – | most effective; also recorded: better at inhibiting pSTAT3, pAKT, pJNK, and pERK signaling | 34.26 | –
12 | > 200 µM | OCc1cc(-c2ccc3c(c2)OCO3)c(-c2ccc3c(c2)OCO3)o1 [SMI-10H, (4,5-Bis(benzo[d][1,3]dioxol-5-yl)furan-2-yl)methanol] | 61.1 | – | – | –
13 | 21.2 ± 1.8 µM | O=C(O)/C=C/c1cc(-c2ccc3c(c2)OCO3)c(-c2ccc3c(c2)OCO3)s1 [SMI-10B4, (E)-3-(4,5-Bis(benzo[d][1,3]dioxol-5-yl)thiophen-2-yl)acrylic Acid] | – | – | 17.98 | –
14 | 34.5 ± 6.9 µM | COc1ccc(-c2cc(CCC(=O)O)oc2-c2ccc3c(c2)OCO3)cc1 [SMI-10B17, 3-(5-(Benzo[d][1,3]dioxol-5-yl)-4-(4-methoxyphenyl)furan-2-yl)propanoic acid] | – | – | 86.51 | –
15 | 18.2 ± 2 µM | O=C(O)/C=C/c1cc(-c2ccc3c(c2)OCO3)c(-c2ccccc2)o1 [SMI-10B9, (E)-3-(4-(Benzo[d][1,3]dioxol-5-yl)-5-phenylfuran-2-yl)acrylic Acid] | – | – | 30.98 | –
16 | 8.9 ± 2 µM | O=C(O)CCc1cc(-c2ccc(F)c(F)c2)c(-c2ccc3c(c2)OCO3)o1 [SMI-10B15, 3-(5-(Benzo[d][1,3]dioxol-5-yl)-4-(3,4-difluorophenyl)furan-2-yl)propanoic Acid] | – | – | 75.05 | –
17 | 20.7 ± 1.9 µM | O=C(O)/C=C/c1cc(-c2ccccc2)c(-c2ccccc2)o1 [SMI-10B10, (E)-3-(4,5-Diphenylfuran-2-yl)acrylic Acid] | – | – | 46.10 | –
18 | 10 ± 1 µM | Cn1c(/C=C/C(=O)O)cc(-c2ccc3c(c2)OCO3)c1-c1ccc2c(c1)OCO2 [SMI-10B6, (E)-3-(4,5-Bis(benzo[d][1,3]dioxol-5-yl)-1-methyl-1H-pyrrol-2-yl)acrylic Acid] | – | – | 20.43 | –
19 | 18.4 ± 1.3 µM | COc1ccc(-c2cc(/C=C/C(=O)O)oc2-c2ccc(OC)c(OC)c2)cc1OC [SMI-10B1, (E)-3-(4,5-Bis(3,4-dimethoxyphenyl)furan-2-yl)acrylic Acid] | – | – | 62.35 | –
20 | 18.5 ± 1.7 µM | COc1cc(-c2cc(/C=C/C(=O)O)oc2-c2ccc(O)c(OC)c2)ccc1O [SMI-10B3, (E)-3-(4,5-Bis(4-hydroxy-3-methoxyphenyl)furan-2-yl)acrylic Acid] | – | – | 67.12 | –
21 | 29.6 ± 5.6 µM | COC(=O)c1cc(-c2ccc3c(c2)OCO3)c(-c2ccc3c(c2)OCO3)o1 [SMI-10A, Methyl 4,5-Bis(benzo[d][1,3]dioxol-5-yl)furan-2-carboxylate] | 84.7 | – | – | –
